The target in test [1] is Endothelial PAS domain-containing protein 1 (Homo sapiens) (UniProt Q99814). Description: HIF-2a and HIF-1a reporter inhibition panel, dose response, selectivity assay for HIF-2a inhibitor project, cell-based, luminescence (AID 651581).
In test [2] the target is Hypoxia-inducible factor 1-alpha (Homo sapiens) (UniProt Q16665). The description is as above. Particulars: HIF-1a.

SMILES strings stand for the structures. Calls of active or inactive are those of the source. The rule behind the calls is not given here.

As a reminder, the IC50 is the concentration that gives 50% inhibition.

Chain of Hypoxia-inducible factor 1-alpha (Homo sapiens) (Q16665 whole entry, looked up): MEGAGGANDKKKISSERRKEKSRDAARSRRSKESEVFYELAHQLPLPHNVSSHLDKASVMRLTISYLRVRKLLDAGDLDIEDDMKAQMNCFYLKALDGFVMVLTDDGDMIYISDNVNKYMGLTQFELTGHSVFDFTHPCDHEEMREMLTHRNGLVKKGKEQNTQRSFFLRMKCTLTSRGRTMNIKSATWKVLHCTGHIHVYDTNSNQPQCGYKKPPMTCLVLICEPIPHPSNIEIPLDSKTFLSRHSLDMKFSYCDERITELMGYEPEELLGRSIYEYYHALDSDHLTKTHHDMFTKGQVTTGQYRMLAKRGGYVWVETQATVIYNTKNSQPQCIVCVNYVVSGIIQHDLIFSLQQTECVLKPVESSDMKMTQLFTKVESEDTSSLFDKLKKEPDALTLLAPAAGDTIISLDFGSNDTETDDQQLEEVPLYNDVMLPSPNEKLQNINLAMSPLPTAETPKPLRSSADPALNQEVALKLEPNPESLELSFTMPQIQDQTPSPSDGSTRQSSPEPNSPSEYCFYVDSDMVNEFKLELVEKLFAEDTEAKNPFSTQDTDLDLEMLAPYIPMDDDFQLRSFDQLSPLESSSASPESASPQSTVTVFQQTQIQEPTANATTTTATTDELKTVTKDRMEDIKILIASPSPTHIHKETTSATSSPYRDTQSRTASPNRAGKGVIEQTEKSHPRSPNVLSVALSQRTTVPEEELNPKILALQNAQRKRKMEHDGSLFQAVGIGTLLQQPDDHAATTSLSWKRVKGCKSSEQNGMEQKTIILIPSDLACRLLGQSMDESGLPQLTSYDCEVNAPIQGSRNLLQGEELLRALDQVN

As to `CCOc1ccc(-c2cc(CCCC(=O)Nc3cc(OC)ccc3OC)no2)cc1`, the IC50 in test [1] (HIF-2a PANC, mean of runs) is 0.447 µM; in test [1] (HIF-2a PANC, run 1), 0.529 µM; in test [1] (HIF-2a PANC, run 2), 0.365 µM; in test [1] (HIF-2a, mean of runs) it was 1.99 µM; in test [1] (HIF-2a, run 1), 2.32 µM; in test [1] (HIF-2a, run 2), 1.66 µM. Moreover, the IC50 in test [2] (run 1) stood at 4.99 µM; in test [2] (run 2) it was 5.07 µM. The IC50 entry in test [2] (mean of runs) is “inactive”.
In the case of `Cc1ccc(Oc2ccc(OCC(=O)Nc3ccncc3)cc2)cc1`, the IC50 in test [1] (HIF-2a PANC, mean of runs) was 3.59 µM; in test [1] (HIF-2a PANC, run 1), 3.76 µM; in test [1] (HIF-2a PANC, run 2), 3.42 µM; in test [1] (HIF-2a, mean of runs), 5.89 µM; in test [1] (HIF-2a, run 1), 5.61 µM; in test [1] (HIF-2a, run 2), 6.17 µM. Further, the IC50 in test [2] (run 1) amounted to 14.9 µM; in test [2] (run 2) it was 15.9 µM. In addition, in test [2] (mean of runs), the IC50 result was “inactive”.
For the compound `COc1ccc(/C=C2\SC(=O)N(CCNC(=O)Cn3[nH]c(=O)c4ccccc4c3=O)C2=O)cc1`, the IC50 in test [1] (HIF-2a PANC, mean of runs) was 7.76 µM; in test [1] (HIF-2a PANC, run 1), 8.52 µM; in test [1] (HIF-2a PANC, run 2), 7.01 µM; in test [1] (HIF-2a, run 1), 12 µM; in test [1] (HIF-2a, run 2), 13.1 µM; in test [2] (run 1) it was 7.03 µM. In test [2] (run 2), this compound returned an IC50 of 17.2 µM. Moreover, the IC50 result in test [1] (HIF-2a, mean of runs) is “inactive”; in test [2] (mean of runs), “inactive”.
As for `Cc1c(CCC(=O)NCCC(=O)O)c(=O)oc2c(C)c3oc4c(c3cc12)CCCC4`, the IC50 was 2.65 µM in test [1] (HIF-2a PANC, mean of runs); 2.34 µM in test [1] (HIF-2a PANC, run 1); 2.96 µM in test [1] (HIF-2a PANC, run 2); 3.08 µM in test [1] (HIF-2a, mean of runs); 2.85 µM in test [1] (HIF-2a, run 1); 3.32 µM in test [1] (HIF-2a, run 2). Besides, the IC50 in test [2] (run 1) amounted to 1.23 µM; in test [2] (run 2) it was 14.5 µM. Besides, the IC50 entry in test [2] (mean of runs) is “inactive”.
Take `Nc1nc2ccc(S(=O)(=O)c3ccc4nc(N)sc4c3)cc2s1`: the IC50 was > 99 µM (inactive) in test [1] (HIF-2a PANC, mean of runs); above 99 µM in test [1] (HIF-2a PANC, run 1); above 99 µM in test [1] (HIF-2a PANC, run 2); 14.7 µM in test [1] (HIF-2a, run 1); 14.7 µM in test [1] (HIF-2a, run 2); 71.7 µM in test [2] (run 1). For the same compound, the IC50 in test [2] (run 2) was above 99 µM. Also, the IC50 entry in test [1] (HIF-2a, mean of runs) was “inactive”.
In the case of `COc1cc(N2C(=O)C=CC2=O)c(OC)cc1Cl`, the IC50 result in test [1] (HIF-2a PANC, mean of runs) is “inactive”. For the same compound, the IC50 in test [1] (HIF-2a PANC, run 1) was 38.5 µM; in test [1] (HIF-2a PANC, run 2), 45.2 µM; in test [1] (HIF-2a, mean of runs), 8.55 µM; in test [1] (HIF-2a, run 1), 8.69 µM; in test [1] (HIF-2a, run 2) it was 8.4 µM; in test [2] (mean of runs) it was 36.8 µM. In addition, the IC50 in test [2] (run 1) amounted to 33.2 µM; in test [2] (run 2), 40.4 µM.
In the case of `NNC(=O)c1cccc(COc2ccc3c(c2)CCC3)c1`, the IC50 in test [1] (HIF-2a PANC, mean of runs) is > 99 µM (inactive); in test [1] (HIF-2a PANC, run 1) it was above 99 µM; in test [1] (HIF-2a PANC, run 2), above 99 µM; in test [1] (HIF-2a, mean of runs), < 30 µM (inactive); in test [1] (HIF-2a, run 1), below 30 µM; in test [1] (HIF-2a, run 2), below 30 µM. For the same compound, the IC50 in test [2] (run 1) and in test [2] (run 2) was above 99 µM in each case.
As for `CCOc1ccc(OCc2cccc(C(=O)N3CCOCC3)c2)cc1`, the IC50 in test [1] (HIF-2a PANC, mean of runs) is > 99 µM (inactive); in test [1] (HIF-2a PANC, run 1), above 99 µM; in test [1] (HIF-2a PANC, run 2), above 99 µM; in test [1] (HIF-2a, run 1) it was 7.59 µM; in test [1] (HIF-2a, run 2), below 30 µM; in test [2] (run 1) it was above 99 µM. This compound displayed an IC50 in test [2] (run 2) above 99 µM.
Take `CN(C)S(=O)(=O)c1cccc(NC(=O)CSc2cccc3cccnc23)c1`: the IC50 in test [1] (HIF-2a PANC, mean of runs) is > 99 µM (inactive); in test [1] (HIF-2a PANC, run 1) it was above 99 µM; in test [1] (HIF-2a PANC, run 2), above 99 µM; in test [1] (HIF-2a, mean of runs), 5.4 µM; in test [1] (HIF-2a, run 1), 5.2 µM; in test [1] (HIF-2a, run 2), 5.6 µM. Also, the IC50 in test [2] (mean of runs) was 34.4 µM; in test [2] (run 1), 31.1 µM; in test [2] (run 2) it was 37.7 µM.
Consider `Cc1c(CCC(=O)O)c(=O)oc2cc3oc4c(c3cc12)CCCC4`, for which the IC50 in test [1] (HIF-2a PANC, mean of runs) was 0.708 µM; in test [1] (HIF-2a PANC, run 1), 0.793 µM; in test [1] (HIF-2a PANC, run 2), 0.623 µM; in test [1] (HIF-2a, mean of runs), 0.276 µM; in test [1] (HIF-2a, run 1), 0.267 µM; in test [1] (HIF-2a, run 2) it was 0.286 µM. Besides, the IC50 in test [2] (mean of runs) was 1.12 µM; in test [2] (run 1), 1.15 µM; in test [2] (run 2), 1.08 µM.
As to `CC(=O)Nc1ccc(NC(=O)c2c([N+](=O)[O-])c(C(C)(C)C)nn2C)cc1`, the IC50 in test [1] (HIF-2a PANC, mean of runs) was 11 µM; in test [1] (HIF-2a PANC, run 1), 11.2 µM; in test [1] (HIF-2a PANC, run 2) it was 10.8 µM; in test [1] (HIF-2a, run 1) it was 10.8 µM; in test [1] (HIF-2a, run 2), 11.6 µM; in test [2] (run 1) it was 9.31 µM. Further, the IC50 in test [2] (run 2) stood at 22.8 µM. Further, the IC50 result in test [1] (HIF-2a, mean of runs) is “inactive”; in test [2] (mean of runs) it was “inactive”.
Regarding `CC(=O)Nc1ccc(OC(=O)N2CCCCC2)cc1`, the IC50 was 2.8 µM in test [1] (HIF-2a PANC, mean of runs); 1.96 µM in test [1] (HIF-2a PANC, run 1); 3.65 µM in test [1] (HIF-2a PANC, run 2); 2.33 µM in test [1] (HIF-2a, mean of runs); 2.32 µM in test [1] (HIF-2a, run 1); 2.34 µM in test [1] (HIF-2a, run 2). The results for the IC50 in test [2] (mean of runs), in test [2] (run 1) and in test [2] (run 2) were 11.4 µM, 11.5 µM and 11.2 µM, respectively.

Source of the values: PubChem BioAssay AID651581 (Sanford-Burnham Center for Chemical Genomics, 2012).
